According to US12186303B2, “Feed additive for cattle comprising n-acetyl-l-tryptophan as active ingredient” (CJ CHEILJEDANG CORPORATION, priority 2018, dated 2025):
“Also recorded” adds a separate entry of the source.

What was measured:
Korean native steers = experiment: Body weight, average daily gain and feed conversion ratio according to NALT feeding under cold stress conditions; assay type: in vivo, Korean native cattle
Protocol: In the present disclosure, 8 Korean native steers (8.3±0.72 months old on average) were selected and used. […] Analysis of chemical composition (moisture, crude protein, crude fat, crude ash, etc.) and amino acids (19 types) of the basal diet stored at −20° C. was performed, and the results are shown in Table 3. After grouping the animals by statistical analysis of initial body weights, the animals were bred in 1.0×1.5 m^2 individual pens during the experiment period. The feed was offered based on an amount of dry matter of daily total mixed ration (TMR) per head. After 7 days of an adaptation period for N-acetyl-L-tryptophan (NALT), a mixture of 0.1% N-acetyl-L-tryptophan (NALT) and the total mixed ration was fed to individual animals every morning at 8 a.m. for 6 weeks, and water was available ad libitum. Total amounts of L-tryptophan ingested by the control and NALT-treated group by feeding NALT were 7.37 g/day/head and 16.26 g/day/head, respectively. The experiment was performed such that the NALT-treated group ingested 8.89 g/day/head more L-tryptophan than that of the control. Meanwhile, results of growth performance analysis (body weight and average feed intake) and genetic analysis of loin tissue were obtained by statistically comparing and analyzing significant differences between the control and the NALT-treated group, and results of hematological analysis were obtained via statistical comparison and analysis depending on NALT treatment, experiment period (days), and interaction (treatment×days). These numerical values were expressed as average values, and a significance test was performed at the 5% level using Student's t-test by using the JMP 5.0 software package (SAS Institute Inc., Cary, NC, USA). An average temperature during the adaptation period (days 0-6) was 4.3° C., and average temperatures during the experiment period were in the range of −6.2° C. to 4.2° C., relatively low compared to that of the adaptation period. In addition, an average temperature of the entire experiment period (days 7-48) was −1.0° C. Initial weight (day 0), intermediate weight (day 27), and end weight (day 48) of sentinel animals were measured, i.e., three times in total, before offering morning feed. The average daily gain (average daily weight gain, ADG) of the sentinel animals was calculated by dividing the differences in weight, between the initial weight and the intermediate weight and between the intermediate weight and the end weight, by the total number of days of the experiment.

[1] = system: genes related to muscle metabolism (MYF6, MyoD, and Desmin) and fat metabolism (PPARr, CEBPa, and FABP4) of the loin tissue; experiment: Real-time PCR of gene expression related to loin tissue development under cold stress conditions; assay type: in vivo, Korean native cattle
From the text: After grouping the animals by statistical analysis of initial body weights, the animals were bred in 1.0×1.5 m^2 individual pens during the experiment period. The feed was offered based on an amount of dry matter of daily total mixed ration (TMR) per head. After 7 days of an adaptation period for N-acetyl-L-tryptophan (NALT), a mixture of 0.1% N-acetyl-L-tryptophan (NALT) and the total mixed ration was fed to individual animals every morning at 8 a.m. for 6 weeks, and water was available ad libitum. Total amounts of L-tryptophan ingested by the control and NALT-treated group by feeding NALT were 7.37 g/day/head and 16.26 g/day/head, respectively. The experiment was performed such that the NALT-treated group ingested 8.89 g/day/head more L-tryptophan than that of the control. Meanwhile, results of growth performance analysis (body weight and average feed intake) and genetic analysis of loin tissue were obtained by statistically comparing and analyzing significant differences between the control and the NALT-treated group, and results of hematological analysis were obtained via statistical comparison and analysis depending on NALT treatment, experiment period (days), and interaction (treatment×days). These numerical values were expressed as average values, and a significance test was performed at the 5% level using Student's t-test by using the JMP 5.0 software package (SAS Institute Inc., Cary, NC, USA). Samples of loin tissue of the sentinel animals were obtained at the final day of the experiment (day 48) using a biopsy gun for large animals (TNT Research Co., Ltd., Gyeonggi-do, Republic of Korea), added to a 2 mL tube, and incubated in liquid nitrogen gas. After extracting RNA from each tissue sample, real-time PCR was conducted to analyze expression levels of genes related to muscle metabolism (MYF6, MyoD, and Desmin) and fat metabolism (PPARr, CEBPa, and FABP4) of the loin tissue of each animal.

[2] = 0.1% NALT, day 48, control = 1.000

CC(=O)N[C@@H](Cc1c[nH]c2ccccc12)C(=O)O [NALT, N-acetyl-L-tryptophan]
Decrease of feed conversion ratio compared to the control (Korean native steers; 0.1% NALT in TMR): 63%
Feed conversion ratio of the NALT-treated group relative to the control (Korean native steers; 0.1% NALT in TMR): 37%
Body weight (Korean native steers; 0.1% NALT in TMR, Day 0 (initial weight)): 279.7 kg
Body weight (Korean native steers; 0.1% NALT in TMR, Day 27): 301.5 kg
Feed conversion ratio (Korean native steers; 0.1% NALT in TMR, Day 27): 13.3
ADG (average daily gain) (Korean native steers; 0.1% NALT in TMR, Day 27 (day 0 to day 27)): 0.753 kg/day
Body weight (Korean native steers; 0.1% NALT in TMR, Day 48): 315.7 kg
Feed conversion ratio (Korean native steers; 0.1% NALT in TMR, Day 48): 4.82
ADG (average daily gain) (Korean native steers; 0.1% NALT in TMR, Day 48 (day 27 to day 48)): 0.766 kg/day
Total weight change compared with the control (Korean native steers; day 27 and day 48): no statistically significant difference
Expression of genes (MYF6, MyoD, and Desmin) related to muscle metabolism of loin tissue compared with the control [1]: did not show a statistically significant difference; also recorded: No statistically significant difference
Expression of genes (PPARr, CEBPa, and FABP4) related to fat metabolism of loin tissue compared with the control [1]: lower
CEBPa expression level in loin tissue [1, 2]: 0.293
Desmin expression level in loin tissue [1, 2]: 0.871
FABP4 expression level in loin tissue [1, 2]: 0.233
MYF6 expression level in loin tissue [1, 2]: 0.834
MyoD expression level in loin tissue [1, 2]: 0.857
PPARr expression level in loin tissue [1, 2]: 0.274
